Experimental data from ChEMBL document CHEMBL1909046, “DrugMatrix in vitro pharmacology data”.

Experiments:
[1] = DRUGMATRIX: Calcium Channel Type L, Benzothiazepine radioligand binding (ligand: [3H] Diltiazem); type: cell membranes, Rattus norvegicus, Wistar, Brain, Membrane; settings: Not Active = under 50% inhibition at 10 µM
Cannabinoid receptor 1 = Cannabinoid receptor 1 (Homo sapiens, UniProt P21554); type: cell membranes, Membrane; settings: chem-1; also: in other assays of this panel Not Active means under 50% inhibition at 10 µM
D(1A) dopamine receptor = D(1A) dopamine receptor (Homo sapiens, UniProt P21728); experiment: DRUGMATRIX: Dopamine D1 radioligand binding (ligand: [3H] SCH-23390); type: cell membranes, CHO, Membrane; settings: cho; Not Active = under 50% inhibition at 10 µM
D(3) dopamine receptor = D(3) dopamine receptor (Homo sapiens, UniProt P35462); experiment: DRUGMATRIX: Dopamine D3 radioligand binding (ligand: [3H] Spiperone); type: cell membranes, CHO, Membrane; settings: cho
Endothelin-1 receptor = target: T1, Endothelin-1 receptor (Homo sapiens, UniProt P25101); type: cell membranes, Membrane; settings: cho-k1; also: in other assays of this panel Not Active means under 50% inhibition at 10 µM
T1 sequence (P25101 whole entry): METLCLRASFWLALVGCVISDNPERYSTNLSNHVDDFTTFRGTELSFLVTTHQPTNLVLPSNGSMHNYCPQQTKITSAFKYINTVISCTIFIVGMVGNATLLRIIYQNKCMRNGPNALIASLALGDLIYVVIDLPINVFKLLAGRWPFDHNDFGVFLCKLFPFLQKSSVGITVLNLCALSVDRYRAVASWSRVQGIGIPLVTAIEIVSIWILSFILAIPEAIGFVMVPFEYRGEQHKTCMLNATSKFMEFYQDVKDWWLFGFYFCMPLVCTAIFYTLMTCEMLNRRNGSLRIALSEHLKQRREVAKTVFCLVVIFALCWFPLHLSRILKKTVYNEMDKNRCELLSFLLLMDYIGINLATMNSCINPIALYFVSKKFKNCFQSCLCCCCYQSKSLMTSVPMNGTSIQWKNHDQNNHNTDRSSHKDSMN

[2] = DRUGMATRIX: Glutamate, Kainate radioligand binding (ligand: [3H] Kainic acid); type: cell membranes, Rattus norvegicus, Wistar, Brain, Membrane; settings: Not Active = under 50% inhibition at 10 µM
[3] = target: T2, Muscarinic acetylcholine receptor M4 (Homo sapiens, UniProt P08173); type: cell membranes, CHO-K1, Membrane; settings: cho-k1; also: in other assays of this panel Not Active means under 50% inhibition at 10 µM
T2 sequence (P08173 whole entry): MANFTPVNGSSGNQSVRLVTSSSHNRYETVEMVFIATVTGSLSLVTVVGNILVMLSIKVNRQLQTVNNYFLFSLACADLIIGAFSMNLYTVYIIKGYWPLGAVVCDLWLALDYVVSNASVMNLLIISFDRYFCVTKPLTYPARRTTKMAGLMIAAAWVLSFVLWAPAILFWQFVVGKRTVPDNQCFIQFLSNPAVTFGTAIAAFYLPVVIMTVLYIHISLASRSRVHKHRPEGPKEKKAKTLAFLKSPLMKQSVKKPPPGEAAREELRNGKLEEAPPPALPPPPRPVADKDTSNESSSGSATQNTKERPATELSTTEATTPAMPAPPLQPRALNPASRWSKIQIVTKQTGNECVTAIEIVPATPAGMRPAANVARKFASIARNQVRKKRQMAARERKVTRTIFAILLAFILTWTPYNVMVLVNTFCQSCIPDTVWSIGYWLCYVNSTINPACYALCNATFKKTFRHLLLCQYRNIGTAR

[4] = target: T3, Neuropeptide Y receptor type 1 (Homo sapiens, UniProt P25929); type: cell membranes, Membrane; settings: sk-n-mc; also: in other assays of this panel Not Active means under 50% inhibition at 10 µM
T3 sequence (P25929 whole entry): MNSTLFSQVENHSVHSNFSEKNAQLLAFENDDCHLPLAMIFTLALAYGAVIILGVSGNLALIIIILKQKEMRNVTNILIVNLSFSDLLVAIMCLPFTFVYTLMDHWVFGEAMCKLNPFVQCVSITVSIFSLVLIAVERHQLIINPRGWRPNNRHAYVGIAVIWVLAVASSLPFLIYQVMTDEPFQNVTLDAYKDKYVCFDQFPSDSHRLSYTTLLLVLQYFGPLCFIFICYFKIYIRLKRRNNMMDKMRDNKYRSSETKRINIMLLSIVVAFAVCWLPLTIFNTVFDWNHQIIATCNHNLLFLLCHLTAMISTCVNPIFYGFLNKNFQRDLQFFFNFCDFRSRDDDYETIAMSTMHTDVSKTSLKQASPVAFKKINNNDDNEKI

[5] = target: Delta-type opioid receptor (Homo sapiens, UniProt P41143); type: cell membranes, HEK293, Membrane; settings: hek293; also: in other assays of this panel Not Active means under 50% inhibition at 10 µM
[6] = DRUGMATRIX: Phosphodiesterase PDE3 enzyme inhibition (substrate: [3H]cAMP + cAMP); type: tissue-based, Homo sapiens; settings: platelet, Not Active = under 50% inhibition at 10 µM
Neutrophil elastase = target: T4, Neutrophil elastase (Homo sapiens, UniProt P08246); type: tissue-based
T4 sequence (P08246 whole entry): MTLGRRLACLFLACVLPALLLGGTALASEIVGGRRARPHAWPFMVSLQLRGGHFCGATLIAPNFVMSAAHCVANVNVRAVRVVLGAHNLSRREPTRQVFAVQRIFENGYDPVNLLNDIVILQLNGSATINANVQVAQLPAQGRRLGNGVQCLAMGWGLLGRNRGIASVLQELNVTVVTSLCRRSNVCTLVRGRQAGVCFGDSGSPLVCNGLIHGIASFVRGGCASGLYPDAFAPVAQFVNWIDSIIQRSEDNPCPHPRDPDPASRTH

[7] = target: T5, 5-hydroxytryptamine receptor 1A (Rattus norvegicus, UniProt P19327); type: cell membranes, CHO-K1, Membrane; settings: cho-k1; also: in other assays of this panel Not Active means under 50% inhibition at 10 µM
T5 sequence (P19327 whole entry): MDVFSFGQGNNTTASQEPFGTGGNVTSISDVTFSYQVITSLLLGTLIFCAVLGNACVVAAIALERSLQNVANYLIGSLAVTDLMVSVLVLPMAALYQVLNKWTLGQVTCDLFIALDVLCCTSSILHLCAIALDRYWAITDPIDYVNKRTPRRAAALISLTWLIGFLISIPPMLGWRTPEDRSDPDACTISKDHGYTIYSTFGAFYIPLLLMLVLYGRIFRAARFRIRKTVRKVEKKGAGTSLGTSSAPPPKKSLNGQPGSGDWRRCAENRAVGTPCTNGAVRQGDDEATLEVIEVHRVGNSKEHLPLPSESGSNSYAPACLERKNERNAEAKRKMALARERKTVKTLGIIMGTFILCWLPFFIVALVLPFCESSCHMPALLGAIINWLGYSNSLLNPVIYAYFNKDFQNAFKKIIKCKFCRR

Acetylcholinesterase = Acetylcholinesterase (Homo sapiens, UniProt P22303); experiment: DRUGMATRIX: Acetylcholinesterase enzyme inhibition (substrate: acetylthiocholine); type: cell-based, HEK293; settings: hek293; Not Active = under 50% inhibition at 10 µM
Sequence of Acetylcholinesterase (P22303 whole entry): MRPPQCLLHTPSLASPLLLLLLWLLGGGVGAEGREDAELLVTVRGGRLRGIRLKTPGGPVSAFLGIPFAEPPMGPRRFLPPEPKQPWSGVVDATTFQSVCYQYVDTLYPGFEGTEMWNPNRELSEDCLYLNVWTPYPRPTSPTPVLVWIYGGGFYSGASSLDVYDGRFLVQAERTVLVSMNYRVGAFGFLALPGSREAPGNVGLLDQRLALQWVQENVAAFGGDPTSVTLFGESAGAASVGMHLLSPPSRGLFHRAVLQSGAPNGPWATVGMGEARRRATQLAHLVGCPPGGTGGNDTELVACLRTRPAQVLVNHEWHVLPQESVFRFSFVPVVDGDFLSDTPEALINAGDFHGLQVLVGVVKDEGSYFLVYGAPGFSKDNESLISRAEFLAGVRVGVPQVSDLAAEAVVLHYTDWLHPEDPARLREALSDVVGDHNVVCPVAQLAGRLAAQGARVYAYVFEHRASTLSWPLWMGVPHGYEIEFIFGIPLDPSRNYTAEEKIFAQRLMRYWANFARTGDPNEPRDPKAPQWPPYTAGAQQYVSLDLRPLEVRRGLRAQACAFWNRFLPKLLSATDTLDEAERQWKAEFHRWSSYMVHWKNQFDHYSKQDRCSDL

Sequence of D(1A) dopamine receptor (P21728 whole entry): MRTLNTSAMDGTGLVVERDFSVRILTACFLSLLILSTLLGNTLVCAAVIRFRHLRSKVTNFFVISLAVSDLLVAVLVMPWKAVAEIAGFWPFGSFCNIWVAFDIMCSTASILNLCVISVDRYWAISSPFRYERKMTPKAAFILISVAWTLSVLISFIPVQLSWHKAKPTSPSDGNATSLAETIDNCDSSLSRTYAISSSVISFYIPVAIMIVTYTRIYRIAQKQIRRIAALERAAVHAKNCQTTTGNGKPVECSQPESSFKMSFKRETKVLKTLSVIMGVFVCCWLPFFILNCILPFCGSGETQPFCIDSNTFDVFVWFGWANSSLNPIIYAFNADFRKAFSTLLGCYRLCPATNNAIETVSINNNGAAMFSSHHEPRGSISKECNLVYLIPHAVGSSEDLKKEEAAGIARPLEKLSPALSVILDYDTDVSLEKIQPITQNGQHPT
Sequence of Cannabinoid receptor 1 (P21554 whole entry): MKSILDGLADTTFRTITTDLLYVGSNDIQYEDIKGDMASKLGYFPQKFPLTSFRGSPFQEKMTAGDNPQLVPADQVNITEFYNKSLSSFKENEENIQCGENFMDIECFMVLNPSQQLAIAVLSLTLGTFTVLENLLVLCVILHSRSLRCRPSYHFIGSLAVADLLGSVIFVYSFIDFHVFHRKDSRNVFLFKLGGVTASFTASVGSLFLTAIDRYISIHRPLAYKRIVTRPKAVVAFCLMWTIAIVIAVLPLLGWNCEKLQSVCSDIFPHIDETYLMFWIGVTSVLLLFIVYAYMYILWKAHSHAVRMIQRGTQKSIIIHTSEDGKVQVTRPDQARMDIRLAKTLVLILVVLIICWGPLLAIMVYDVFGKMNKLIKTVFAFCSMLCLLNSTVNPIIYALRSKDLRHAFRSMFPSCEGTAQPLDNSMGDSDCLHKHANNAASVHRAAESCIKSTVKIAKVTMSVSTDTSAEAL
Sequence of Delta-type opioid receptor (P41143 whole entry): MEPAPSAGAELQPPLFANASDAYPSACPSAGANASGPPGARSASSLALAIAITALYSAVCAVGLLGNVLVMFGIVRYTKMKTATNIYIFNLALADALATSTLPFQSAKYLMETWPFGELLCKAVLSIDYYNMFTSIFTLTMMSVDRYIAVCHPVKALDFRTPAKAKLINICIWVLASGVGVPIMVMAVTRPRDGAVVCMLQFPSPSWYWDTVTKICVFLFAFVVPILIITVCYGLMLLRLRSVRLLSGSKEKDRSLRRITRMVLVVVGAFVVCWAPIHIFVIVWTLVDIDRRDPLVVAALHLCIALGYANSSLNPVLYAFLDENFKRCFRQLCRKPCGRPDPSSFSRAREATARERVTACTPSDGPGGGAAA
Sequence of D(3) dopamine receptor (P35462 whole entry): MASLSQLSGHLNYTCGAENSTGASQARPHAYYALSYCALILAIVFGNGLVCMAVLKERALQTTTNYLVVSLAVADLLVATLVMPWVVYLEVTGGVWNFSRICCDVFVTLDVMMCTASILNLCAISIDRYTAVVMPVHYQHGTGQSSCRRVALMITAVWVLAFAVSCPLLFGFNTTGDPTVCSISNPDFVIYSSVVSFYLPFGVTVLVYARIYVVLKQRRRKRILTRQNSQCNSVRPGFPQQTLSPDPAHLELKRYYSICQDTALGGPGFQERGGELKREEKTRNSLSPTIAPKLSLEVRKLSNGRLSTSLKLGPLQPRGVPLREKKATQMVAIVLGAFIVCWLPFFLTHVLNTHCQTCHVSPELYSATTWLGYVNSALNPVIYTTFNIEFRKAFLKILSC

| Molecule | IC50 [1] | Ki [1] | IC50 (Cannabinoid receptor 1) | IC50 (D(1A) dopamine receptor) | IC50 (D(3) dopamine receptor) | IC50 (Endothelin-1 receptor) | IC50 [2] | Ki [2] | IC50 [3] | IC50 [4] | IC50 [5] | IC50 [6] | Ki [6] | IC50 (Neutrophil elastase) | IC50 [7] | IC50 (Acetylcholinesterase) | also measured |
| --- | --- | --- | --- | --- | --- | --- | --- | --- | --- | --- | --- | --- | --- | --- | --- | --- | --- |
| CC(=O)CCCCn1c(=O)c2c(ncn2C)n(C)c1=O [PENTOXIFYLLINE] | Not Active | Not Active | Not Active | Not Active | Not Active | Not Active | Not Active | Not Active | Not Active | Not Active | Not Active | Not Active | Not Active | Not Active | Not Active | Not Active |  |
| O=C1NC(=O)C(c2ccccc2)(c2ccccc2)N1 [PHENYTOIN] | Not Active | Not Active | Not Active | Not Active | Not Active | Not Active | Not Active | Not Active | Not Active | Not Active | Not Active | Not Active | Not Active | Not Active | Not Active | Not Active |  |
| C=C(C)[C@@H]1[C@H]2OC(=O)[C@@H]1[C@]1(O)C[C@H]3O[C@]34C(=O)O[C@H]2[C@]14C [PICROTOXININ] | Not Active | Not Active | Not Active | Not Active | Not Active | Not Active | Not Active | Not Active | Not Active | Not Active | Not Active | Not Active | Not Active | Not Active | Not Active | Not Active |  |
| CN1C(C(=O)Nc2ccccn2)=C(O)c2ccccc2S1(=O)=O [PIROXICAM] | Not Active | Not Active | Not Active | Not Active | Not Active | Not Active | Not Active | Not Active | Not Active | Not Active | Not Active | Not Active | Not Active | Not Active | Not Active | Not Active |  |
| CCC1(c2ccccc2)C(=O)NCNC1=O [PRIMIDONE] | Not Active | Not Active | Not Active | Not Active | Not Active | Not Active | Not Active | Not Active | Not Active | Not Active | Not Active | Not Active | Not Active | Not Active | Not Active | Not Active |  |
| CCCc1cc(=O)[nH]c(=S)[nH]1 [PROPYLTHIOURACIL] | Not Active | Not Active | Not Active | Not Active | Not Active | Not Active | Not Active | Not Active | Not Active | Not Active | Not Active | Not Active | Not Active | Not Active | Not Active | Not Active |  |
| COc1ccc(CN(CCN(C)C)c2ccccn2)cc1 [PYRILAMINE] | Not Active | Not Active | Not Active | Not Active | Not Active | Not Active | Not Active | Not Active | Not Active | Not Active | Not Active | Not Active | Not Active | Not Active | Not Active | Not Active |  |
| CARBOPLATIN | Not Active | Not Active | Not Active | Not Active | Not Active | Not Active | Not Active | Not Active | Not Active | Not Active | Not Active | Not Active | Not Active | Not Active | Not Active | Not Active | Ki (Cannabinoid receptor 1): Not Active; Ki (D(1A) dopamine receptor): Not Active; Ki (D(3) dopamine receptor): Not Active; Ki (Endothelin-1 receptor): Not Active; Ki [3]: Not Active; Ki [4]: Not Active; Ki [5]: Not Active; Ki (Neutrophil elastase): Not Active; Ki [7]: Not Active; Ki (Acetylcholinesterase): Not Active |
| CISPLATIN | Not Active | Not Active | Not Active | Not Active | Not Active | Not Active | Not Active | Not Active | Not Active | Not Active | Not Active |  |  | Not Active | Not Active | Not Active | Ki (Cannabinoid receptor 1): Not Active; Ki (D(1A) dopamine receptor): Not Active; Ki (D(3) dopamine receptor): Not Active; Ki (Endothelin-1 receptor): Not Active; Ki [3]: Not Active; Ki [4]: Not Active; Ki [5]: Not Active; IC50 ([6]; read-out: IC50): 46.3 µM; Ki (Neutrophil elastase): Not Active; Ki [7]: Not Active; Ki (Acetylcholinesterase): Not Active |
